Measurements: patent US5653957A, “Halogenated sulfidohydroboranes for nuclear medicine and boron neutron capture therapy” (Associated Universities, Inc., priority 1996, dated 1997)

How the values were obtained:
mice [1] = assay: Subacute toxicity in mice judged by hematological and chemical tests of the blood 5 days after i.p. injection; type: in vivo, female mice (BNL Hale-Stoner strain)
Description: C) 0.9% NaCl in water (saline) (7 mice).
Injection volumes were all 0.015 mL/gbw.
Inadvertently,the BSSB group (Group A) received 17 μg ^10 B/gbw, only about one-third of the intended boron dose, 50 μg/gbw. Nevertheless, it is useful to compare the subacute toxicity of a relatively high dose of a substance, IBSSB, which had never before been tested in an animal, with that of its parent compound, BSSB, which is known to be non-lethal at about 35 μg B/gbw, i.e., twice the lower of the two boron doses used See Slatkin et al., "Boron Uptake in Melanoma, Cerebrum and Blood from Na2 B12 H11 SH and Na4 B24 H22 S2 Administered to Mice", Biochem. Pharm., 35, 1771 (1986).
See Miura et al., "Biodistribution and Toxicity of 2,4-Divinyl-nido-carboranyldeuterophorphyrin IX in Mice". Biochem. Pharm., 43, 467 (1992). It therefore appears that the periodinated borane is not more toxic than the non-iodinated borane.

brain tumors = conditions: mouse, in vivo; cited from earlier work
mice [2] = conditions: at about 35 μg B/gbw; cited from earlier work
[3] = mouse, in vivo
Description: Three groups of female mice (BNL Hale-Stoner strain) were given a single intraperitoneal (i.p.) injection of:
Injection volumes were all 0.015 mL/gbw. Five days after the injection, mice were euthanized by deep halothane inhalation anesthesia. Thoracotomy was performed, and about 0.7-0.9 mL blood was removed through the right ventricle. Hematological and chemical analyses were performed on blood specimens from each mouse.
(mg/dL), blood urea nitrogen [BUN] (mg/dL), blood creatinine [BCR] (mg/dL) aspartate transaminase [AST] (U/L), alanine transaminase [ALT] (U/L), alkaline phosphatase [ALP] (U/L), creatine phosphokinase [CPK] (U/L), total protein [TPR] (g/dL), albumin [ALB] (g/dL), calcium [CA] (mg/dL), chloride [CHL] (meg/L), inorganic phosphorus [P] (mg/dL), potassium [K] (meg/L), and sodium [SOD] (meg/L) .

## BSSB
Mice [1]; mouse, in vivo
  fourteen chemical and thirteen hematological tests, BSSB (Group A) vs IBSSB (Group B): no significant differences between the two groups
Brain tumors
  accumulation in brain tumors vs the monomeric form: more readily accumulated in brain tumors than the monomeric form
Mice [2]
  lethality: non-lethal

## periodinated dimeric sulfidohydrododecaborane [IBSSB]
[3]
  alanine transaminase [ALT]: 22 U/L
  albumin [ALB]: 3.3 g/dL
  alkaline phosphatase [ALP]: 110 U/L
  aspartate transaminase [AST]: 44 U/L
  blood creatinine [BCR]: 0.5 mg/dL
  blood urea nitrogen [BUN]: 28 mg/dL
  calcium [CA]: 11.5 mg/dL
  chloride [CHL]: 116 meg/L
  creatine phosphokinase [CPK]: 35 U/L
  glucose [GLU]: 278 mg/dL
  inorganic phosphorus [P]: 9.9 mg/dL
  potassium [K]: 7.1 meg/L
  sodium [SOD]: 154 meg/L
  total protein [TPR]: 5.9 g/dL
Mice [1]; mouse, in vivo
  fourteen chemical and thirteen hematological tests, BSSB (Group A) vs IBSSB (Group B): no significant differences between the two groups
  hepatotoxicity: may be slightly hepatotoxic to mice
  other differences between mice in groups B and C: No other differences were noted
  significant toxicity: no evidence of significant toxicity
Mice [1]; single i.p. 50 μg B/gbw, vs three-fold less BSSB, 5 days later
  toxicity judged by hematological and chemical tests of the blood, vs BSSB: only minimally more toxic
